Measured values taken from the Deep4Chem optical property database.

Assay: solvent given as SMILES

## COc1cc2c3c4c(c5ccc(C(C)(C)C)cc5c5c(OC)cc(OC)c(c2c(OC)c1OC)c45)=[N+]1C3=Nc2c3c4cc(OC)c(OC)c(OC)c4c4c(OC)cc(OC)c5c6cc(C(C)(C)C)ccc6c(c3c54)n2[B-]1(F)F
In Cc1ccccc1
  absorption maximum: 878 nm

## Cc1ccccc1C(=O)NN1C2=C(CC3=C1CC(C)(C)CC3=O)C(=O)CC(C)(C)C2
In C1CCOC1
  absorption maximum: 370 nm
In CC#N
  absorption maximum: 370 nm
In CC(C)=O
  absorption maximum: 368 nm
In CCCCCO
  absorption maximum: 378 nm
In CO
  absorption maximum: 376 nm
In ClC(Cl)Cl
  absorption maximum: 370 nm
In ClCCl
  absorption maximum: 368 nm

## CC1=C(I)C(C)=[N+]2C1=C(c1c(-c3ccccn3)nc3ccccn13)c1c(C)cc(C)n1[B-]2(F)F
In ClCCl
  absorption maximum: 534 nm

## CCOC(=O)CCOc1ccc(C(c2c(C)[nH]c3ccccc23)c2c(C)[nH]c3ccccc23)cc1OC
In C1CCCCC1
  absorption maximum: 291 nm
In CC#N
  absorption maximum: 289 nm
In CO
  absorption maximum: 289 nm

## c1cc2cccc3c4cccc5cccc(c(c1)c23)c54
In C1CCCCC1
  absorption maximum: 435 nm
In ClC(Cl)Cl
  absorption maximum: 438.5 nm
In ClCCl
  absorption maximum: 438 nm

## O=C1CC(c2ccc(Cl)cc2)c2c(c3ccccc3c3nc4ccccc4nc23)O1 (stereo not drawn)
In ClC(Cl)Cl
  absorption maximum: 410 nm

## O=C(O)CCCCCn1c2ccc(Br)cc2c(=O)c2cc(Br)ccc21
In O
  absorption maximum: 425 nm

## CCCCCCN1C(=O)c2cccc3c(-c4ccc(-c5cccs5)s4)ccc(c23)C1=O
In ClC(Cl)Cl
  absorption maximum: 409 nm

## Oc1ccccc1/C=N/CC/N=C/c1ccccc1O
In CC#N
  absorption maximum: 396 nm

## C(=C\c1ccc(-c2ccncc2)cc1)/c1ccc(-c2ccncc2)cc1
In ClCCl
  absorption maximum: 345 nm

## CN(C)c1ccc(/C=C/c2cc(/C=C/c3ccc(N(C)C)cc3)nc(N)n2)cc1
In Cc1ccccc1
  absorption maximum: 414 nm
In ClC(Cl)Cl
  absorption maximum: 426 nm

## CCCN1c2ccccc2Sc2cc(C3=C4C=CC=[N+]4[B-](F)(F)n4cccc43)ccc21
In ClCCl
  absorption maximum: 499 nm

## c1ccc(-c2oc(-c3ccccc3)c3ccccc23)cc1
In C1CCCCC1
  absorption maximum: 411 nm
In C1CCOC1
  absorption maximum: 413 nm
In CC#N
  absorption maximum: 411 nm
In CCO
  absorption maximum: 411 nm
In CN(C)C=O
  absorption maximum: 415 nm
In CS(C)=O
  absorption maximum: 416 nm
In Cc1ccccc1
  absorption maximum: 414 nm

## CN(C)c1ccc(C#Cc2ncnc3ccccc23)cc1
In ClCCl
  absorption maximum: 384 nm

## CCCCCCc1sc(CCCCCC)c2c3ccsc3c3sccc3c12
In ClC(Cl)Cl
  absorption maximum: 383 nm

## N#Cc1ccc(N)c(/C=C/C(F)(F)F)c1
In C1CCOC1
  absorption maximum: 348 nm

## COc1ccc(C2=CC(c3ccccc3)=C(c3ccccc3)C2)c2ccccc12
In ClCCl
  absorption maximum: 354 nm

## C(#Cc1ccccc1)C(C#Cc1ccccc1)=Cc1ccccc1
In ClC(Cl)Cl
  absorption maximum: 340 nm

## c1ccc(C[n+]2cc3ccc4c[n+](Cc5ccccc5)cc5ccc(c2)c3c45)cc1
In CC#N
  absorption maximum: 421 nm

## C(=C\c1cnccn1)/c1ccc(N(c2ccccc2)c2ccc(/C=C/c3cnccn3)cc2)cc1
In ClCCl
  absorption maximum: 420 nm

## COc1ccc(-c2nc3ccccc3oc2=O)cc1
In c1ccccc1
  absorption maximum: 372 nm

## CN1CCN(CCCN2c3ccccc3Sc3ccc(Cl)cc32)CC1
In CC#N
  absorption maximum: 314 nm
In CO
  absorption maximum: 313 nm
In O
  absorption maximum: 309 nm

## CCCCN1C(=O)C(=C/C=C/C=C2N(CCCC)c3ccccc3N2CCCC)C(=O)N(CCCC)C1=S
In CCCCCC
  absorption maximum: 574 nm
In CCO
  absorption maximum: 452 nm
In CN(C)C=O
  absorption maximum: 497 nm
In Cc1ccccc1
  absorption maximum: 575 nm
In ClC(Cl)Cl
  absorption maximum: 559 nm
In ClCCl
  absorption maximum: 550 nm

## Cc1ccc2[nH]c(-c3ccc(-c4ccc(-c5ccc(-c6nc7cc(C)ccc7[nH]6)cc5)cc4)cc3)nc2c1
In CN(C)C=O
  absorption maximum: 351 nm

## Cc1ccc2oc(-c3cc4cc(C)ccc4oc3=O)cc2c1
In CC#N
  absorption maximum: 372 nm
In CCOC(C)=O
  absorption maximum: 374 nm
In CS(C)=O
  absorption maximum: 377 nm
In Cc1ccccc1
  absorption maximum: 378 nm
In O
  absorption maximum: 351 nm

## O=c1oc2ccccc2cc1/C=C/c1ccccc1
In CC#N
  absorption maximum: 351 nm

## Oc1ccccc1/N=C/c1ccccc1Oc1ccccc1
In C1CCCCC1
  absorption maximum: 353 nm
In C1CCOC1
  absorption maximum: 355 nm
In C1COCCO1
  absorption maximum: 367 nm
In CC#N
  absorption maximum: 349 nm
In CC(C)=O
  absorption maximum: 366 nm
In CC(C)CO
  absorption maximum: 352 nm
In CC(C)O
  absorption maximum: 352 nm
In CCCCC
  absorption maximum: 355 nm
In CCCCCC
  absorption maximum: 367 nm
In CCCCCCCCO
  absorption maximum: 355 nm
In CCCCCCCO
  absorption maximum: 354 nm
In CCCCCCO
  absorption maximum: 355 nm
In CCCCO
  absorption maximum: 353 nm
In CCCCOC(C)=O
  absorption maximum: 367 nm
In CCCO
  absorption maximum: 351 nm
In CCO
  absorption maximum: 350 nm
In CCOCC
  absorption maximum: 363 nm
In CN(C)C=O
  absorption maximum: 349 nm
In CO
  absorption maximum: 348 nm
In CS(C)=O
  absorption maximum: 373 nm
In Cc1ccccc1
  absorption maximum: 381 nm
In Cc1ccccc1C
  absorption maximum: 359 nm
In ClC(Cl)Cl
  absorption maximum: 356 nm
In ClCCl
  absorption maximum: 356 nm
In N#Cc1ccccc1
  absorption maximum: 357 nm
In OCCO
  absorption maximum: 349 nm
In c1ccccc1
  absorption maximum: 366 nm

## CCCCCCCCCCn1c(-c2cc(-c3nc4ccccc4n3CCCCCCCCCC)cc(-c3nc4ccccc4n3CCCCCCCCCC)c2)nc2ccccc21
In ClCCl
  absorption maximum: 299.5 nm

## CCCCC(CC)Cn1c2cc(C#N)ccc2c2ccc(C#Cc3ccc4ccc5cccc6ccc3c4c56)cc21 (stereo not drawn)
In ClCCl
  absorption maximum: 410 nm

## CCc1ccc(-c2nc(-c3ccc(-n4c5ccccc5c5ccccc54)cc3)cc(-c3ccc(-n4c5ccccc5c5ccccc54)cc3)n2)cc1
In C1CCOC1
  absorption maximum: 343 nm
In CN(C)C=O
  absorption maximum: 344 nm
In Cc1ccccc1
  absorption maximum: 354 nm
In ClC(Cl)Cl
  absorption maximum: 344 nm

## C[C@]12SC(=O)C=C1c1nc(-c3ccc(Cl)cc3Cl)[nH]c1C1=CC(=O)S[C@@]12C
In CC#N
  absorption maximum: 475 nm

## CCNc1cc2oc(=O)c3c(=O)oc4ccccc4c3c2cc1C
In CS(C)=O
  absorption maximum: 454 nm
In ClCCl
  absorption maximum: 441 nm

## c1ccc2cc(-c3cc(-c4nccs4)nc(-c4nccs4)c3)ccc2c1
In CC#N
  absorption maximum: 323 nm
In CCCCCC
  absorption maximum: 333 nm
In CO
  absorption maximum: 333 nm
In ClC(Cl)Cl
  absorption maximum: 329 nm

## C(#Cc1ccccc1)C1=Cc2ccc3ccccc3c2NB1c1ccccc1
In C1CCCCC1
  absorption maximum: 387 nm

## CCN(CC)c1ccc2cc(-c3nc4cc(C(=O)Nc5ccc(C)cc5[N+](=O)[O-])ccc4o3)c(=O)oc2c1
In ClCCl
  absorption maximum: 445 nm

## CC/[NH+]=c1\cc2oc3cc(NCCC(=O)NC(C(=O)OC)c4ccccc4)c4ccccc4c3nc-2cc1C (stereo not drawn)
In CCO
  absorption maximum: 580 nm
In O
  absorption maximum: 590 nm

## COc1ccc(-c2cnc(C#Cc3ccccc3)o2)cc1OC
In ClCCl
  absorption maximum: 330 nm

## c1ccc2c(c1)c1ccccc1n2-c1cc(-c2nc3ccccn3n2)cc(-n2c3ccccc3c3ccccc32)c1
In Cc1ccccc1
  absorption maximum: 338 nm

## CN(C)c1ccc2cc(C3=[O+][B-](F)(F)OC(c4ccc(C#N)cc4)=C3)ccc2c1
In C1CCOC1
  absorption maximum: 525 nm
In CC#N
  absorption maximum: 539 nm
In CC(C)=O
  absorption maximum: 533 nm
In CS(C)=O
  absorption maximum: 559 nm
In Cc1ccccc1
  absorption maximum: 519 nm
In ClC(Cl)Cl
  absorption maximum: 532 nm
In ClCCl
  absorption maximum: 539 nm

## Cc1cc(C)c(-c2c3ccccc3c3ccc4cc5c(-c6c(C)cc(C)cc6C)c6ccccc6c6ccc7cc2c3c4c7c56)c(C)c1
In ClCCl
  absorption maximum: 607 nm

## COc1ccc(C2=C(c3ccc(OC)cc3)c3cccc4c5c(cc(c34)O2)=NC(C#N)C(C#N)N=5)cc1 (stereo not drawn)
In ClCCl
  absorption maximum: 511 nm

## CCOC(=O)c1c2c3c(ccc(OC)c3c3cc4c(cc13)[Si](C)(C)O[Si]4(C)C)N(C)C2=O
In CC#N
  absorption maximum: 378 nm

## CCCCN(CCCC)c1ccc(C#Cc2cc(C#Cc3ccc(C(F)(F)F)cc3)c(C#Cc3ccc(N(CCCC)CCCC)cc3)cc2C#Cc2ccc(C(F)(F)F)cc2)cc1
In ClCCl
  absorption maximum: 438 nm

## CCCn1c(-c2cc(-c3nc4ccccc4n3CCC)cc(-c3nc4ccccc4n3CCC)c2)nc2ccccc21
In CS(C)=O
  absorption maximum: 301.5 nm

## CCOC(=O)CSc1nc(-c2ccccc2)c(C)c(C#N)c1C#N
In C1COCCO1
  absorption maximum: 350 nm
In CC#N
  absorption maximum: 365 nm
In CCO
  absorption maximum: 367 nm
In CCOC(C)=O
  absorption maximum: 366 nm
In ClC(Cl)Cl
  absorption maximum: 376 nm
In c1ccccc1
  absorption maximum: 372 nm

## F[B-]1(F)n2c(/C=C/c3ccc(C(=C(c4ccccc4)c4ccccc4)c4ccccc4)cc3)ccc2C(c2ccccc2)=C2C=CC(/C=C/c3ccc(C(=C(c4ccccc4)c4ccccc4)c4ccccc4)cc3)=[N+]21
In C1CCOC1
  absorption maximum: 665 nm

## COc1nc(Nc2ccc3c4cccc5cccc(c6cccc2c63)c54)nc(OC)n1
In C1COCCO1
  absorption maximum: 443 nm
In CC#N
  absorption maximum: 444 nm
In CCCCOCCCC
  absorption maximum: 442 nm
In CCOC(C)=O
  absorption maximum: 441 nm

## c1ccc(-c2nc(-c3ccccn3)sc2N(c2ccccc2)c2ccccc2)cc1
In ClC(Cl)Cl
  absorption maximum: 388 nm

## c1ccc2c(c1)-c1ccccc1C21c2ccccc2-c2sc3c(c21)C1(c2ccccc2-c2ccccc21)c1ccccc1-3
In C1CCOC1
  absorption maximum: 373 nm

## CC/[NH+]=c1\cc2oc3cc(NCCC(=O)NCCCCC(NC(C)=O)C(=O)OC)c4ccccc4c3nc-2cc1C (stereo not drawn)
In CCO
  absorption maximum: 590 nm
In O
  absorption maximum: 590 nm

## COc1cccc(/C=C/C(=O)c2c(O)cc(C)oc2=O)c1
In CC#N
  absorption maximum: 373 nm
In ClCCl
  absorption maximum: 377 nm

## CCCCCCn1c2cc(/C=C(\C#N)c3ccccc3)ccc2c2ccc(/C=C(\C#N)c3ccccc3)cc21
In ClC(Cl)Cl
  absorption maximum: 423.73 nm

## O=c1oc2ccc3ccccc3c2nc1-c1ccc(Cl)cc1
In c1ccccc1
  absorption maximum: 404 nm

## O=C1c2ccc(-c3ccc(N(c4ccccc4)c4ccccc4)cc3)cc2C(=O)c2ccc(-c3ccc(N(c4ccccc4)c4ccccc4)cc3)cc21
In Cc1ccccc1
  absorption maximum: 454 nm

## Nc1ccc2c(ccc3[n+]2[B-](F)(F)n2c-3cc3c4ccccc4c4ccccc4c32)c1
In ClCCl
  absorption maximum: 482 nm

## CN(C)c1ccc(/C=C/c2ccc(-c3nc(C#N)c(C#N)n3C)cc2)cc1
In C1CCCCC1
  absorption maximum: 376 nm
In CC#N
  absorption maximum: 380 nm
In CO
  absorption maximum: 378 nm
In ClC(Cl)Cl
  absorption maximum: 383 nm

## O=P(c1ccccc1)(c1ccccc1)c1ccc(-n2c(-c3ccccc3P(=O)(c3ccccc3)c3ccccc3)nc3ccccc32)cc1
In ClCCl
  absorption maximum: 300 nm
